PubChem BioAssay AID256 (DTP/NCI, 2004)
Values joined by “and” are separate entries in the source; they are usually repeats but may differ in a detail not shown here. Identical values can stand only once. Toxic doses and inconclusive results are not listed.

Test system: CD2F1 mice, L1210 leukemia ip, survival T/C
Assay: NCI In Vivo Anticancer Drug Screen. Data for tumor model L1210 Leukemia (intraperitoneal) in CD2F1 (CDF1) mice
Settings: higher = longer survival
Procedure, shortened: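 Vehicle-treated tumor-bearing mice served as controls (C) for compound-treated mice (T). Reported figure is T divided by C.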

Q: For `N#Cc1c(-c2ccc(F)cc2)c(-c2ccc(F)cc2)nn(CCO)c1=O`, which T/C (endpoint: median survival time, dose: 12.5 mg/kg/injection, schedule: Q01DX005 (ip), vehicle: distilled water + Tween-80) is on record?
A: 98 % of control and 100 % of control

Q: And the T/C (endpoint: median survival time, dose: 25.0 mg/kg/injection, schedule: Q01DX005 (ip), vehicle: distilled water + Tween-80)?
A: 98 % of control and 100 % of control

Q: And the T/C (endpoint: median survival time, dose: 50.0 mg/kg/injection, schedule: Q01DX005 (ip), vehicle: distilled water + Tween-80)?
A: 102 % of control and 104 % of control

Q: And the T/C (endpoint: median survival time, dose: 72.0 mg/kg/injection, schedule: Q01DX005 (ip), vehicle: water)?
A: 106 % of control and 111 % of control

Q: What about the T/C (endpoint: median survival time, dose: 100.0 mg/kg/injection, schedule: Q01DX005 (ip), vehicle: distilled water + Tween-80) of the same compound?
A: 107 % of control

Q: And the T/C (endpoint: median survival time, dose: 108.0 mg/kg/injection, schedule: Q01DX005 (ip), vehicle: distilled water + Tween-80)?
A: 118 % of control

Q: And the T/C (endpoint: median survival time, dose: 120.0 mg/kg/injection, schedule: Q01DX005 (ip), vehicle: water)?
A: 121 % of control and 123 % of control

Q: And the T/C (endpoint: median survival time, dose: 180.0 mg/kg/injection, schedule: Q01DX005 (ip), vehicle: distilled water + Tween-80)?
A: 124 % of control

Q: And the T/C (endpoint: median survival time, dose: 200.0 mg/kg/injection, schedule: Q01DX005 (ip), vehicle: distilled water + Tween-80)?
A: 110 % of control

Q: What about the T/C (endpoint: median survival time, dose: 333.3 mg/kg/injection, schedule: Q01DX005 (ip), vehicle: water) of the same compound?
A: 325 % of control

Q: And the T/C (endpoint: median survival time, dose: 333.33 mg/kg/injection, schedule: Q01DX005 (ip), vehicle: water)?
A: 196 % of control

Q: And the T/C (endpoint: median survival time, dose: 500.0 mg/kg/injection, schedule: Q01DX005 (ip), vehicle: distilled water + Tween-80)?
A: 204 % of control

Q: What about the T/C (endpoint: median survival time, dose: 555.55 mg/kg/injection, schedule: Q01DX005 (ip), vehicle: water) of the same compound?
A: 264 % of control

Q: What does the source list for `CCCCCCNc1nc(NCCCCCC)c2[nH]c(NCCCCCC)nc2n1`?
A: T/C (endpoint: median survival time, dose: 25.0 mg/kg/injection, schedule: Q01DX009 (ip), vehicle: saline with Tween-80): 107 % of control; T/C (endpoint: median survival time, dose: 50.0 mg/kg/injection, schedule: Q01DX009 (ip), vehicle: saline with Tween-80): 107 % of control; T/C (endpoint: median survival time, dose: 100.0 mg/kg/injection, schedule: Q01DX009 (ip), vehicle: saline with Tween-80): 106 % of control; T/C (endpoint: median survival time, dose: 200.0 mg/kg/injection, schedule: Q01DX009 (ip), vehicle: saline with Tween-80): 105 % of control

Q: `CN(C)c1ccc(NC(=S)Nc2ccc(N(C)C)cc2)cc1` was tested. Which T/C (endpoint: mean survival time, dose: 25.0 mg/kg/injection, schedule: Q01DX001 (ip), vehicle: saline with Tween-80) did it give?
A: 97 % of control

Q: What about the T/C (endpoint: mean survival time, dose: 50.0 mg/kg/injection, schedule: Q01DX001 (ip), vehicle: saline with Tween-80) of the same compound?
A: 102 % of control

Q: What about the T/C (endpoint: mean survival time, dose: 100.0 mg/kg/injection, schedule: Q01DX001 (ip), vehicle: saline with Tween-80) of the same compound?
A: 94 % of control

Q: Which results are given for `O=C(Nc1ccccc1F)c1cccc(Cl)c1`?
A: T/C (endpoint: mean survival time, dose: 100.0 mg/kg/injection, schedule: Q01DX009 (ip), vehicle: saline + alcohol): 94 % of control; T/C (endpoint: mean survival time, dose: 100.0 mg/kg/injection, schedule: Q04DX003 (ip), vehicle: saline + alcohol): 95 % of control; T/C (endpoint: mean survival time, dose: 200.0 mg/kg/injection, schedule: Q01DX009 (ip), vehicle: saline + alcohol): 94 % of control; T/C (endpoint: mean survival time, dose: 200.0 mg/kg/injection, schedule: Q04DX003 (ip), vehicle: saline + alcohol): 95 % of control; T/C (endpoint: mean survival time, dose: 400.0 mg/kg/injection, schedule: Q01DX009 (ip), vehicle: saline + alcohol): 94 % of control; T/C (endpoint: mean survival time, dose: 400.0 mg/kg/injection, schedule: Q04DX003 (ip), vehicle: saline + alcohol): 94 % of control

Q: How did the T/C (endpoint: mean survival time, dose: 25.0 mg/kg/injection, schedule: Q04DX002 (ip), vehicle: saline with Tween-80) turn out when `CCCCCCCCCCCCCC[N+](C)(C)CC#CC[N+](C)(C)CCCCCCCCCCCCCC` was run?
A: 104 % of control

Q: What about the T/C (endpoint: mean survival time, dose: 50.0 mg/kg/injection, schedule: Q04DX002 (ip), vehicle: saline with Tween-80) of the same compound?
A: 89 % of control

Q: With `Cc1ccccc1S(=O)(=O)F` as the compound, how does the T/C (endpoint: mean survival time, dose: 50.0 mg/kg/injection, schedule: Q01DX009 (ip), vehicle: saline with Tween-80) read?
A: 103 % of control

Q: And the T/C (endpoint: mean survival time, dose: 100.0 mg/kg/injection, schedule: Q01DX009 (ip), vehicle: saline with Tween-80)?
A: 107 % of control

Q: What about the T/C (endpoint: mean survival time, dose: 100.0 mg/kg/injection, schedule: Q04DX003 (ip), vehicle: saline with Tween-80) of the same compound?
A: 92 % of control

Q: And the T/C (endpoint: mean survival time, dose: 200.0 mg/kg/injection, schedule: Q04DX003 (ip), vehicle: saline with Tween-80)?
A: 89 % of control

Q: Which results are given for `CC12CCC(=O)C=C1CCC1C2CCC2(C)C(C(=O)Cn3c(=O)[nH]cc(F)c3=O)CCC12` (configuration not stated)?
A: T/C (endpoint: mean survival time, dose: 12.5 mg/kg/injection, schedule: Q04DX003 (ip), vehicle: Klucel (hydroxypropylcellulose) (HPC)): 94 % of control; T/C (endpoint: mean survival time, dose: 25.0 mg/kg/injection, schedule: Q04DX003 (ip), vehicle: Klucel (hydroxypropylcellulose) (HPC)): 94 % of control; T/C (endpoint: mean survival time, dose: 50.0 mg/kg/injection, schedule: Q04DX003 (ip), vehicle: Klucel (hydroxypropylcellulose) (HPC)): 97 % of control; T/C (endpoint: mean survival time, dose: 100.0 mg/kg/injection, schedule: Q04DX003 (ip), vehicle: Klucel (hydroxypropylcellulose) (HPC)): 91 % of control; T/C (endpoint: mean survival time, dose: 200.0 mg/kg/injection, schedule: Q04DX003 (ip), vehicle: Klucel (hydroxypropylcellulose) (HPC)): 95 % of control
